{
  "source": "ChEMBL document CHEMBL4819081",
  "about": "(Eur J Med Chem, 2021)",
  "key": {"NCI-H1299": {"system": "NCI-H1299", "assay": "Antiproliferative activity against human NCI-H1299 cells assessed as reduction in cell viability after 72 hrs by MTT assay", "format": "functional, cell-based", "settings": "NCI-H1299, 72 h"}, "MDA-MB-231 [1]": {"system": "MDA-MB-231", "assay": "Antiproliferative activity against human MDA-MB-231 cells assessed as reduction in cell viability after 72 hrs by MTT assay", "format": "functional, cell-based", "settings": "MDA-MB-231, 72 h"}, "MCF7": {"system": "MCF7", "assay": "Antiproliferative activity against human MCF7 cells assessed as reduction in cell viability after 72 hrs by MTT assay", "format": "functional, cell-based", "settings": "MCF7, 72 h"}, "[2]": {"biological_target": "T1, Cyclin-dependent kinase 4/cyclin D1 (Homo sapiens) (UniProt P11802+P24385)", "assay": "Inhibition of CDK4/Cyclin D1 (unknown origin) at 200 nM using ATP by mobility shift assay", "format": "protein-complex assay"}, "[3]": {"biological_target": "T1, Cyclin-dependent kinase 4/cyclin D1 (Homo sapiens)", "assay": "Inhibition of CDK4/Cyclin D1 (unknown origin) at 20 nM using ATP by mobility shift assay", "format": "protein-complex assay"}, "[4]": {"biological_target": "T2, CDK6/cyclin D3 (Homo sapiens) (UniProt P30281+Q00534)", "assay": "Inhibition of CDK6/Cyclin D3 (unknown origin) at 200 nM using ATP by mobility shift assay", "format": "protein-complex assay"}, "[5]": {"biological_target": "T2, CDK6/cyclin D3 (Homo sapiens)", "assay": "Inhibition of CDK6/Cyclin D3 (unknown origin) at 20 nM using ATP by mobility shift assay", "format": "protein-complex assay"}, "CDK6/cyclin D3": {"biological_target": "CDK6/cyclin D3 (Homo sapiens, UniProt Q00534)", "sequence (P30281 whole entry)": "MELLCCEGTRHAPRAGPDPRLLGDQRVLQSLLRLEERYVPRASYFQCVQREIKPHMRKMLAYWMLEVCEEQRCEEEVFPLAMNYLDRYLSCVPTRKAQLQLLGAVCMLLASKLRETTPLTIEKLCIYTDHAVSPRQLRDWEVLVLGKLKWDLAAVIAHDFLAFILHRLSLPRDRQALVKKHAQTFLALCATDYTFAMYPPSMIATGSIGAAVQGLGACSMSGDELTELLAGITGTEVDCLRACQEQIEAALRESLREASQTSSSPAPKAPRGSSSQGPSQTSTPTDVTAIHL", "sequence (Q00534 whole entry)": "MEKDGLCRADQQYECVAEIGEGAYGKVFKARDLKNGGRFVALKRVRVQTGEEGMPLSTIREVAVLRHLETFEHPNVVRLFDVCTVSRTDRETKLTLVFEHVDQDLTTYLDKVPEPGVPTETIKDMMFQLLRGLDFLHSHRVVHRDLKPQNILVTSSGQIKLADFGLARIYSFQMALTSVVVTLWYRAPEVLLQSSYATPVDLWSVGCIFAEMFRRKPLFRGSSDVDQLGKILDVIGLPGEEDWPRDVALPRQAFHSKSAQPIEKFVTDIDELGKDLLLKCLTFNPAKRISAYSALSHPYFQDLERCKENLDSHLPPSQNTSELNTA", "assay": "Inhibition of CDK6/Cyclin D3 (unknown origin) by mobility shift assay", "format": "protein-complex assay"}, "CDK4/Cyclin D3": {"biological_target": "CDK4/Cyclin D3 (Homo sapiens, UniProt P11802)", "sequence (P11802 whole entry)": "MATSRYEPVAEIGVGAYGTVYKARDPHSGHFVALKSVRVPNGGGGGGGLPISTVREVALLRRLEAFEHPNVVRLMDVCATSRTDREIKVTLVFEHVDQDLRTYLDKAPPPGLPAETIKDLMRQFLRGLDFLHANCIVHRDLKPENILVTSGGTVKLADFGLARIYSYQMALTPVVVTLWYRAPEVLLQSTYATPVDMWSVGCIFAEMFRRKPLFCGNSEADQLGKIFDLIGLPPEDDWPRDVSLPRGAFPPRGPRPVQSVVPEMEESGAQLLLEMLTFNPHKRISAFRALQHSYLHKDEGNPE", "sequence (P30281 whole entry, further chain)": "as the sequence (P30281 whole entry) above", "assay": "Inhibition of CDK4/Cyclin D3 (unknown origin) by mobility shift assay", "format": "protein-complex assay"}, "MDA-MB-231 [6]": {"system": "MDA-MB-231", "assay": "Induction of cell cycle arrest in human MDA-MB-231 cells assessed as accumulation at S phase at 0.1875 uM after 12 hrs by propidium iodide staining-based flow cytometric analysis (reference value: 23.71%)", "format": "functional"}, "MDA-MB-231 [7]": {"system": "MDA-MB-231", "assay": "Induction of cell cycle arrest in human MDA-MB-231 cells assessed as accumulation at S phase at 0.1875 uM after 12 hrs by propidium iodide staining-based flow cytometric analysis (reference value: 21.11%)", "format": "functional"}, "MDA-MB-231 [8]": {"system": "MDA-MB-231", "assay": "Induction of cell cycle arrest in human MDA-MB-231 cells assessed as accumulation at S phase at 0.375 uM after 12 hrs by propidium iodide staining-based flow cytometric analysis (reference value: 23.71%)", "format": "functional"}, "MDA-MB-231 [9]": {"system": "MDA-MB-231", "assay": "Induction of cell cycle arrest in human MDA-MB-231 cells assessed as accumulation at S phase at 0.75 uM after 12 hrs by propidium iodide staining-based flow cytometric analysis (reference value: 23.71%)", "format": "functional"}, "MDA-MB-231 [10]": {"system": "MDA-MB-231", "assay": "Induction of cell cycle arrest in human MDA-MB-231 cells assessed as accumulation at G2 phase at 1.5 uM after 12 hrs by propidium iodide staining-based flow cytometric analysis (reference value: 21.11%)", "format": "functional"}, "MDA-MB-231 [11]": {"system": "MDA-MB-231", "assay": "Antitumor activity against human MDA-MB-231 cells xenografted in po dosed BALB/c mouse assessed as reduction in tumor weight measured every 3 days for 21 days", "format": "functional, organism-based", "settings": "dose 40-80 mg/kg, time […]"}, "MDA-MB-231 [12]": {"system": "MDA-MB-231", "assay": "Induction of apoptosis in human MDA-MB-231 cells assessed as early apoptotic cells at 0.625 uM after 24 hrs by Annexin-V/PI-staining based flow cytometry (reference value: 2.67%)", "format": "functional"}, "MDA-MB-231 [13]": {"system": "MDA-MB-231", "assay": "Induction of apoptosis in human MDA-MB-231 cells assessed as late apoptotic cells at 0.625 uM after 24 hrs by Annexin-V/PI-staining based flow cytometry (reference value: 3.02%)", "format": "functional"}, "MDA-MB-231 [14]": {"system": "MDA-MB-231", "assay": "Induction of apoptosis in human MDA-MB-231 cells assessed as early apoptotic cells at 1.25 uM after 24 hrs by Annexin-V/PI-staining based flow cytometry (reference value: 2.67%)", "format": "functional"}, "MDA-MB-231 [15]": {"system": "MDA-MB-231", "assay": "Induction of apoptosis in human MDA-MB-231 cells assessed as late apoptotic cells at 1.25 uM after 24 hrs by Annexin-V/PI-staining based flow cytometry (reference value: 3.02%)", "format": "functional"}, "MDA-MB-231 [16]": {"system": "MDA-MB-231", "assay": "Induction of apoptosis in human MDA-MB-231 cells assessed as early apoptotic cells at 2.5 uM after 24 hrs by Annexin-V/PI-staining based flow cytometry (reference value: 2.67%)", "format": "functional"}, "MDA-MB-231 [17]": {"system": "MDA-MB-231", "assay": "Induction of apoptosis in human MDA-MB-231 cells assessed as late apoptotic cells at 2.5 uM after 24 hrs by Annexin-V/PI-staining based flow cytometry (reference value: 3.02%)", "format": "functional"}, "MDA-MB-231 [18]": {"system": "MDA-MB-231", "assay": "Induction of apoptosis in human MDA-MB-231 cells assessed as early apoptotic cells at 5 uM after 24 hrs by Annexin-V/PI-staining based flow cytometry (reference value: 2.67%)", "format": "functional"}, "MDA-MB-231 [19]": {"system": "MDA-MB-231", "assay": "Induction of apoptosis in human MDA-MB-231 cells assessed as late apoptotic cells at 5 uM after 24 hrs by Annexin-V/PI-staining based flow cytometry (reference value: 3.02%)", "format": "functional"}, "MDA-MB-231 [20]": {"system": "MDA-MB-231", "assay": "Induction of apoptosis in human MDA-MB-231 cells assessed as early apoptotic cells at 10 uM after 24 hrs by Annexin-V/PI-staining based flow cytometry (reference value: 2.67%)", "format": "functional"}, "MDA-MB-231 [21]": {"system": "MDA-MB-231", "assay": "Induction of apoptosis in human MDA-MB-231 cells assessed as late apoptotic cells at 10 uM after 24 hrs by Annexin-V/PI-staining based flow cytometry (reference value: 3.02%)", "format": "functional"}, "MDA-MB-231 [22]": {"system": "MDA-MB-231", "assay": "Antitumor activity against human MDA-MB-231 cells xenografted in BALB/c mouse assessed as tumor growth inhibition at 80 mg/kg, po measured every 3 days for 21 days", "format": "functional", "settings": "MDA-MB-231, po, 504 h, time 21 day, read-out: TGI"}, "MDA-MB-231 [23]": {"system": "MDA-MB-231", "assay": "Antitumor activity against human MDA-MB-231 cells xenografted in BALB/c mouse assessed as tumor growth inhibition at 40 mg/kg, po measured every 3 days for 21 days", "format": "functional", "settings": "MDA-MB-231, po, 504 h, time 21 day, read-out: TGI"}, "MDA-MB-231 [24]": {"system": "MDA-MB-231", "assay": "Antitumor activity against human MDA-MB-231 cells xenografted in po dosed BALB/c mouse assessed as reduction in tumor volume measured every 3 days for 21 days", "format": "functional, organism-based", "settings": "dose 40-80 mg/kg, time 21.0 day"}, "MDA-MB-231 [25]": {"system": "MDA-MB-231", "assay": "Potency index, ratio of IC50 for Palbociclib to IC50 for test compound for antiproliferative activity against human MDA-MB-231 cells assessed as reduction in cell viability after 72 hrs by MTT assay", "format": "functional"}, "MDA-MB-453": {"system": "MDA-MB-453", "assay": "Potency index, ratio of IC50 for Palbociclib to IC50 for test compound for antiproliferative activity against human MDA-MB-453 cells assessed as reduction in cell viability after 72 hrs by MTT assay", "format": "functional"}, "[26]": {"assay": "Toxicity in BALB/c mouse xenografted with human MDA-MB-231 cells assessed as body weight change at 40 to 80 mg/kg, po measured every 3 days for 21 days", "format": "organism-based", "settings": "in vivo, 72 h, dose 40-80 mg/kg, time 3 day"}, "[27]": {"biological_target": "Cyclin-dependent kinase 1/cyclin B1 (Homo sapiens, UniProt P06493)", "sequence (P06493 whole entry)": "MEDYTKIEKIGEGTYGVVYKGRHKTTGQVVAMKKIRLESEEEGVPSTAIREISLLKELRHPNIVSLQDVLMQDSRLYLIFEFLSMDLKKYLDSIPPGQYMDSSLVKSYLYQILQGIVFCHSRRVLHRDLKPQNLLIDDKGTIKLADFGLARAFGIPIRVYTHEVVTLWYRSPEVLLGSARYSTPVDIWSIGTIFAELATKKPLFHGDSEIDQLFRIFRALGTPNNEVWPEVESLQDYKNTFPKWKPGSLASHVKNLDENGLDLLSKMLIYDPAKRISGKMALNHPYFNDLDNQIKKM", "sequence (P14635 whole entry, further chain)": "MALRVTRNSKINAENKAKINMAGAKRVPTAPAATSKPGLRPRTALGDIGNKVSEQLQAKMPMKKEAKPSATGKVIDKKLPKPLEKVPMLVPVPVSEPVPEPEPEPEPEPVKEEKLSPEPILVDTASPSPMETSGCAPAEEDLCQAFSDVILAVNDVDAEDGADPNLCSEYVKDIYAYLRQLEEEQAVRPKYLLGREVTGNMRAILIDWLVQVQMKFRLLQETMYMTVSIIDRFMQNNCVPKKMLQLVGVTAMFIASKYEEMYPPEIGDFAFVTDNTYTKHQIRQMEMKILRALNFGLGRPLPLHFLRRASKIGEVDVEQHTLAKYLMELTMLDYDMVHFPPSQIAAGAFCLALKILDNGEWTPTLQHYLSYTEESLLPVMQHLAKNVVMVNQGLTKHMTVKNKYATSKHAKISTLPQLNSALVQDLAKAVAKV", "assay": "Inhibition of CDK1/cyclin B (unknown origin)", "format": "protein-complex assay"}, "CDK2/Cyclin A2": {"biological_target": "CDK2/Cyclin A2 (Homo sapiens, UniProt P24941)", "assay": "Inhibition of CDK2/cyclin A2 (unknown origin)", "format": "protein-complex assay"}, "CDK7/Cyclin H/MNAT1": {"biological_target": "CDK7/Cyclin H/MNAT1 (Homo sapiens, UniProt P50613)", "sequence (P51946 whole entry)": "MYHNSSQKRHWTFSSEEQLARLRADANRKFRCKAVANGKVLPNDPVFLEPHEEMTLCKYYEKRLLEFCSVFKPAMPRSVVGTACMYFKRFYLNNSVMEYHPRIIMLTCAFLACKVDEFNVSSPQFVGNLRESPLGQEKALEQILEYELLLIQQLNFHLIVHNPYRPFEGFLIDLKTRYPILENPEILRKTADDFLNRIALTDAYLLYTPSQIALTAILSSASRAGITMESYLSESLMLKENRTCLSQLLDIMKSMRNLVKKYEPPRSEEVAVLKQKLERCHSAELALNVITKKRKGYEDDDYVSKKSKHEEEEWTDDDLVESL", "sequence (P50613 whole entry)": "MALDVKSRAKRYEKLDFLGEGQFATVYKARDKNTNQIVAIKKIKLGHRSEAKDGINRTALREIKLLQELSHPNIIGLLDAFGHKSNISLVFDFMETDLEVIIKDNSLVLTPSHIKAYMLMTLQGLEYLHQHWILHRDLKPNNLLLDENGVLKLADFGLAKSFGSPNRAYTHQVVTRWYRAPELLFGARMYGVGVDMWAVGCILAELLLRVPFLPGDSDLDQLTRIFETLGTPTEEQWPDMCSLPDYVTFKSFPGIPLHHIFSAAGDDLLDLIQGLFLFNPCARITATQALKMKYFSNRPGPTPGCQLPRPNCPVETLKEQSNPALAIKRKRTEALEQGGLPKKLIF", "sequence (P51948 whole entry, further chain)": "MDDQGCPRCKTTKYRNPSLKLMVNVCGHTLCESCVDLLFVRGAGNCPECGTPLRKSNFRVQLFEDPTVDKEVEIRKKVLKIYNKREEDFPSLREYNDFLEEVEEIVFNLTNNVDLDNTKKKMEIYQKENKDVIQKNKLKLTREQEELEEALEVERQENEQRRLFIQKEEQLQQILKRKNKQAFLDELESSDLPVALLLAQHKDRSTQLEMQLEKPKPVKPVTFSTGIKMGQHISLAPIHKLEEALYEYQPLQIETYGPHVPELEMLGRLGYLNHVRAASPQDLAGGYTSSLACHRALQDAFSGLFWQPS", "assay": "Inhibition of CDK7/cyclin H/MAT1 (unknown origin)", "format": "protein-complex assay"}, "[28]": {"biological_target": "Cyclin-dependent kinase 9 (Homo sapiens, UniProt P50750)", "sequence (P50750 whole entry)": "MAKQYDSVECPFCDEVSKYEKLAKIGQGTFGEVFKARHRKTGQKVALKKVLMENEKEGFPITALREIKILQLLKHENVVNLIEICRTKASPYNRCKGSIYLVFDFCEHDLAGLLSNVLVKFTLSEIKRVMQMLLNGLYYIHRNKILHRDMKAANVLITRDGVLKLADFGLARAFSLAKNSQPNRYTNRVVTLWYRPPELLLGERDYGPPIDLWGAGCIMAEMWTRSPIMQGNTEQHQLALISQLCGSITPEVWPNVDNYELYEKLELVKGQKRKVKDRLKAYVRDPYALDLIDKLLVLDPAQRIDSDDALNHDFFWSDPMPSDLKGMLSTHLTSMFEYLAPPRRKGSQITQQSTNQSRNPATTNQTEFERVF", "assay": "Inhibition of CDK9 (unknown origin)"}},
  "data": [
    {"smiles": "CC(=O)c1c(C)c2cnc(Nc3ccc(N4CCN(C(=O)CCl)CC4)cn3)nc2n(C2CCCC2)c1=O", "values": [
      {"measurement": "IC50", "setting": "NCI-H1299", "value": 2490, "unit": "nM"},
      {"measurement": "IC50", "setting": "MDA-MB-231 [1]", "value": 1210, "unit": "nM"},
      {"measurement": "IC50", "setting": "MCF7", "value": 380, "unit": "nM"},
      {"measurement": "inhibition", "setting": "[2]", "value": 93.8, "unit": "%"},
      {"measurement": "inhibition", "setting": "[3]", "value": 61.7, "unit": "%"},
      {"measurement": "inhibition", "setting": "[4]", "value": 95.3, "unit": "%"},
      {"measurement": "inhibition", "setting": "[5]", "value": 81.6, "unit": "%"},
      {"measurement": "IC50", "setting": "CDK6/cyclin D3", "value": 14, "unit": "nM"},
      {"measurement": "IC50", "setting": "CDK4/Cyclin D3", "value": 6.1, "unit": "nM"},
      {"measurement": "Activity", "setting": "MDA-MB-231 [6]", "value": 15.55, "unit": "%"},
      {"measurement": "Activity", "setting": "MDA-MB-231 [7]", "value": 13.82, "unit": "%"},
      {"measurement": "Activity", "setting": "MDA-MB-231 [8]", "value": 15.36, "unit": "%"},
      {"measurement": "Activity", "setting": "MDA-MB-231 [9]", "value": 11.05, "unit": "%"},
      {"measurement": "Activity", "setting": "MDA-MB-231 [10]", "value": 19.72, "unit": "%"},
      {"measurement": "inhibition", "setting": "MDA-MB-231 [11]", "value": "Dose-Dependent Effect"},
      {"measurement": "Activity", "setting": "MDA-MB-231 [12]", "value": 4.24, "unit": "%"},
      {"measurement": "Activity", "setting": "MDA-MB-231 [13]", "value": 3.82, "unit": "%"},
      {"measurement": "Activity", "setting": "MDA-MB-231 [14]", "value": 7.72, "unit": "%"},
      {"measurement": "Activity", "setting": "MDA-MB-231 [15]", "value": 9.72, "unit": "%"},
      {"measurement": "Activity", "setting": "MDA-MB-231 [16]", "value": 17.09, "unit": "%"},
      {"measurement": "Activity", "setting": "MDA-MB-231 [17]", "value": 31.65, "unit": "%"},
      {"measurement": "Activity", "setting": "MDA-MB-231 [18]", "value": 44.02, "unit": "%"},
      {"measurement": "Activity", "setting": "MDA-MB-231 [19]", "value": 27.32, "unit": "%"},
      {"measurement": "Activity", "setting": "MDA-MB-231 [20]", "value": 68.48, "unit": "%"},
      {"measurement": "Activity", "setting": "MDA-MB-231 [21]", "value": 14.54, "unit": "%"},
      {"measurement": "inhibition in vivo at 80 mg/kg", "setting": "MDA-MB-231 [22]", "value": 105, "unit": "%"},
      {"measurement": "inhibition in vivo at 40 mg/kg", "setting": "MDA-MB-231 [23]", "value": 93.5, "unit": "%"},
      {"measurement": "inhibition", "setting": "MDA-MB-231 [24]", "value": "Dose-Dependent Effect"},
      {"measurement": "Ratio IC50", "setting": "MDA-MB-231 [25]", "value": 4},
      {"measurement": "Ratio IC50", "setting": "MDA-MB-453", "value": 40},
      {"measurement": "Activity", "setting": "[26]", "value": "Non-Toxic"},
      {"measurement": "IC50", "setting": "[27]", "value": "> 10", "unit": "µM"},
      {"measurement": "IC50", "setting": "CDK2/Cyclin A2", "value": 7.6, "unit": "µM"},
      {"measurement": "IC50", "setting": "CDK7/Cyclin H/MNAT1", "value": "> 3.33", "unit": "µM"},
      {"measurement": "IC50", "setting": "[28]", "value": 1830, "unit": "nM"}
    ]}
  ]
}
